The numbers were not newly measured in US20240000730A1, “ANTIHISTAMINE SEMI-SOLID CHEWABLE GEL COMPOSITIONS AND METHODS OF MAKING AND USING THEREOF” (Seattle Gummy Company, priority 2021, published 2024), which cites them from elsewhere.

The conditions of data set [1]: ITC measurements. (In general: In ITC the heat of successive injections is recorded.)
The conditions of data set [2]: ITC measurements. The source holds these as a separate data set.
For data set [3] the following is noted: ITC measurements. This is another data set of the same source.

As to `O=C(O)COCCN1CCN(C(c2ccccc2)c2ccc(Cl)cc2)CC1` (stereo not drawn) [Cetirizine, cetirizine], the “association constant K(a) of the cetirizine-β-cyclodextrin complex” value in data set [1] was 5641 ± 358 M⁻¹. For the same compound, in data set [2], the “association constant of the cetirizine-γ-cyclodextrin complex” value is 1200±50 (−1). Moreover, the “association constant K(a) of the cetirizine-α-cyclodextrin complex” value in data set [3] is 1434 ± 60 M⁻¹.
